Assays:
panel of 442 kinases [1] = molecular target: T1, panel of 442 kinases (Homo sapiens, UniProt P29320); assay type: binding; details: Compound Concentration 10 µM
T1 construct: purchased KINOMEscan
T1 sequence (P29320 21-983): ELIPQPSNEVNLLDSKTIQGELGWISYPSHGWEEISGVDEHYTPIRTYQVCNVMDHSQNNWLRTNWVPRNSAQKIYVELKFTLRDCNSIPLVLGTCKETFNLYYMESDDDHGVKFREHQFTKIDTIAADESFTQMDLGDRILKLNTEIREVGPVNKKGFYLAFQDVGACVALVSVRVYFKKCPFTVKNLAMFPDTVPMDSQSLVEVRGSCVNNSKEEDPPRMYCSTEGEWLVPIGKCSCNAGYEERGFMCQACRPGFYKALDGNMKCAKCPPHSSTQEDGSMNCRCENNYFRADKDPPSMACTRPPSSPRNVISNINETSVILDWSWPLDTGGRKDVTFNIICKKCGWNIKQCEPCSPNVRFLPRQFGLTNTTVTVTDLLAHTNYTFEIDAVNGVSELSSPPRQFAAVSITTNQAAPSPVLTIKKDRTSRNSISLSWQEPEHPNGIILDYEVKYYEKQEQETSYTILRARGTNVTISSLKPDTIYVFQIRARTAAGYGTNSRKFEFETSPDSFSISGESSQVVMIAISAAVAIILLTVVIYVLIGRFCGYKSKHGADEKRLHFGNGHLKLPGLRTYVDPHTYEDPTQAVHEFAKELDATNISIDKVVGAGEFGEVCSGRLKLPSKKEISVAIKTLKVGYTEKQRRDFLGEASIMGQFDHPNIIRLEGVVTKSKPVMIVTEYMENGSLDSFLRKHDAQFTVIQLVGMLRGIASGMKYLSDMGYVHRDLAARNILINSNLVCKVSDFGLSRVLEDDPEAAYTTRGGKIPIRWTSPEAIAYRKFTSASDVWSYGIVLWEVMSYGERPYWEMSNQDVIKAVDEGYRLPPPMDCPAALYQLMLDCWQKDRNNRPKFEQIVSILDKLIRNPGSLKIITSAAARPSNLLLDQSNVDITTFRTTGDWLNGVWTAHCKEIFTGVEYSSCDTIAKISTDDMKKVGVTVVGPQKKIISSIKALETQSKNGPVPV
Source text: (§1) We assessed the selectivity of members of this scaffold using the KINOMEscan methodology across a near comprehensive panel of 442 kinases [[18,27]].

panel of 442 kinases [2] = molecular target: T2, panel of 442 kinases (Homo sapiens, UniProt Q9UQ88); assay type: binding; details: Compound Concentration 10 µM
T2 construct: purchased KINOMEscan
T2 sequence (Q9UQ88 1-783): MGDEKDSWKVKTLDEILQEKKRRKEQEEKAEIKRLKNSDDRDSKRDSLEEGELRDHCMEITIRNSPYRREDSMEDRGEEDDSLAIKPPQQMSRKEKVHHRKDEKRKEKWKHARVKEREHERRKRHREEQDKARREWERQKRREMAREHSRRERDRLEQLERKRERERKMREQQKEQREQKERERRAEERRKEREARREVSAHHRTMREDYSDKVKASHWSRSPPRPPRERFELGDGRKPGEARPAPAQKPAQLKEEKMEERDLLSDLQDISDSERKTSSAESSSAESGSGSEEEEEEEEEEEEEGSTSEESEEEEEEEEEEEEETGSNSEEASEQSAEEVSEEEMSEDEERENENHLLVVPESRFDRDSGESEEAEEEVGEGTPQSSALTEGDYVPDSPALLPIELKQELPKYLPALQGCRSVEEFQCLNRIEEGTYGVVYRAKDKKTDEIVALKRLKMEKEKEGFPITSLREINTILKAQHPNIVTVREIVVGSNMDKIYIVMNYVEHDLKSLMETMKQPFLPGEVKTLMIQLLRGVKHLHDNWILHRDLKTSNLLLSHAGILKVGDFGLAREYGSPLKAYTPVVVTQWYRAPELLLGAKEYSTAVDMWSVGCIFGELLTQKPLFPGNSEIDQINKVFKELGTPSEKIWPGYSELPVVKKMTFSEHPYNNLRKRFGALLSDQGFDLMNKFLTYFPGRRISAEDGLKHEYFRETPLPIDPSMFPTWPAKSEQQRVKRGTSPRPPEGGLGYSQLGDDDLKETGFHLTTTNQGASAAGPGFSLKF
Source text: as §1

Row | SMILES | KINOMEscan: EPHA3 (panel of 442 kinases [1]) | KINOMEscan: CDC2L2 (panel of 442 kinases [2])
1 | COc1cc(C(=O)N2CCC(N3CCN(C)CC3)CC2)ccc1Nc1ncc2c(n1)N(C)c1ccccc1C(=O)N2C [15 (LRRK2-IN-1)] | 100 | 82
2 | COc1cc(C(=O)N2CCC(N3CCN(C)CC3)CC2)ccc1Nc1ncc2c(n1)N1CCc3cccc(c31)C(=O)N2C [Compound 24] | 91 | –
3 | COc1cc(C(=O)N2CCC(N3CCN(C)CC3)CC2)ccc1Nc1ncc2c(n1)N(C1CCCC1)c1ccccc1C(=O)N2C [Compound 25, 11-cyclopentyl-2-((2-methoxy-4-(4-(4-methylpiperazin-1-yl)piperidine-1-carbonyl)phenyl)amino)-5-methyl-5H-benzo[e]pyrimido[5,4-b][1,4]diazepin-6(11H)-one] | 100 | 100
4 | CCOc1cc(C(=O)N2CCC(N3CCN(C)CC3)CC2)ccc1Nc1ncc2c(n1)N(C1CCCC1)c1ccccc1C(=O)N2C [Compound 26] | 95 | 100
